Here are results for 2 substances from patent publication US20220256821A1, “ZEBRAFISH DELETION AND COMPOUND MUTANTS AND USES THEREOF” (The General Hospital Corporation, priority 2019, published 2022).

Format in all cases: in vivo, human
The test system of experiment [1] is OVCAR-5 (EPCAM+) cancer cells. Kind of experiment: BiTE therapy of engrafted tumor in zebrafish. Conditions: rag2null/null; Il2rga-/- zebrafish, co-administered with CD8+ T cells after 7 days of engraftment. The source says: (§1) To investigate if the rag2^null/null; Il2rga−/− animals can be used in the context of evaluating BiTE therapy efficiency, GFP-expressing OVCAR-5 (EPCAM+) cancer cells were first engrafted into mutant zebrafish. Following 7 days of engraftment, CD8+ T cells were co-administered with a control EPCAM antibody, a non-specific CD19 targeting BiTE (blinatumomab), or an EPCAM targeting BiTE (solitomab). […] In a similar experiment, animals engrafted with CD19-expressing leukemia cell line (K562-CD19) cells were killed off by coadministration of CD8+ T cells and blinatumomab (FIG. 4A-FIG. 4F).
(§2) Human cancer cells were grown to 90% confluence in a T75 cell culture flask, trypsinized, counted and resuspended at 2.5×10^7 cells/ml in Matrigel. Clondronate liposomes were added to the injection mix to inhibit early macrophage ingestion of engrafted cells over the first 7 days. […] Human CD8+ T cells, CMV-primed T cells and Car T cells were grown in 24 well plate at a density of 1×10^6 cells/ml, harvested, counted and resuspended at 5×10^7 cells/ml in T cell media. […] Cancer cell engraftment was assessed using epifluorescence whole animal microscopy (Olympus MVX10), with average GFP intensity measured using ImageJ. Growth was measured in relation to GFP intensity observed immediately after IP injection or by individual count of GFP+ cells over time. […]

Experiment [2] deals with CD19-expressing leukemia cell line (K562-CD19). In words: BiTE therapy of engrafted leukemia cells in zebrafish. The conditions noted are these: rag2null/null; Il2rga-/- zebrafish, coadministration of CD8+ T cells.
Description: as §1, §2

Experiment [3] has as its system OVCAR-5 (zipCaspase3) cells. Kind of experiment: Live confocal imaging of BiTE-induced apoptosis with zipCaspase 3 reporter in zebrafish. The conditions noted are these: administered with T cells, live confocal microscopy. As to the method:
Next, it was investigated whether the rag2^null/null; Il2rga−/− zebrafish are able to be used to directly visualize tumor cell killing at single cell resolution following BiTE therapy in vivo. To do so, OVCAR-5 ovarian cancer cells were engineered to express a zipCaspase 3 construct, where live tumor cells constitutively express mCherry, but express zipGFP only when undergoing apoptosis (FIG. 7A-FIG. 7E).
Imaging of peri-ocular transplanted cells was performed using an inverted LSM 710 confocal microscope. Engrafted zebrafish were anesthetized using […] tricaine and placed into a 12-mm glass-bottom dish for imaging. Serial z-stack imaging was carried out using a 10× objective (NA 0.45). In vivo direct visualization of Car T-cell interaction with tumor cells, cell apoptosis with zipGFP caspase 3 reporter, and visualization of therapy target specificity was carried out by serial z-stack imaging using 405 nm (emission […]), 488 nm (emission=493-586 nm) and 546 nm laser (emission=575-703 nm). Animals were imaged at 6 dpt prior to administration of immunotherapy. […] Quantification of distance between tumor cells and Car T-cells was analysed using distance between surface and spot plugin. Images were manually annotated from Imaris files (n=100 cells per timepoint analyzed from n≥3 animals) and quantified using the Fisher's Exact Test or T-test.

On to blinatumomab, for which the overall tumor growth result in experiment [1] was “did not alter overall OVCAR-5 tumor growth”. Besides, the “killing of engrafted cells” value in experiment [2] is on record as “killed off”.

On to solitomab, for which the “cell apoptosis quantified in vivo (zipGFP)” value in experiment [3] is reported as “significant induction of cell apoptosis”. Moreover, the overall tumor growth result in experiment [1] was “undergo cell killing and suppress tumor growth”.
